Format in all cases: cell-based
Assay [1] relates to H. influenzae (ATCC 49247). The assay is described as follows: Antibacterial susceptibility testing (MIC, broth microdilution or agar dilution), H. influenzae. Conditions: Haemophilus influenzae, ATCC49247; read-out: H. influenzae (ATCC 49247) minimal inhibitory concentration (MIC). The method, then: (§1) Compounds of the invention were tested for antimicrobial activity by susceptibility testing in liquid or on solid media. MICs for compounds against each strain were determined by the broth microdilution or agar dilution method according to the guidelines of the Clinical Laboratories and Standards Institute, formerly the National Committee for Clinical Laboratory Standards (Clinical Laboratories and Standards Institute. Methods for Dilution Antimicrobial Susceptibility Tests for Bacteria That Grow Aerobically; Approved Standard—Seventh Edition. Document M7-A7. CLSI, Wayne, Pa., 2006; Clinical Laboratories and Standards Institute. The Gram positive bacterial strains tested include S. aureus (Staphylococcus aureus (Isolate ID ATCC 29213)), E. faecalis (Enterococcus faecalis (Isolate ID ATCC 29212)) and S. pyogenes (Streptococcus pyogenes (Isolate ID ATCC 51339)). The Gram negative bacterial strains tested include H. influenzae (Haemophilus influenzae (Isolate ID ATCC 49247)).
(Broth dilution looks for growth in wells or tubes with falling amounts of substance.)

The next assay relates to S. aureus (ATCC 29213). The assay is described as follows: Antibacterial susceptibility testing (MIC, broth microdilution or agar dilution), S. aureus. Conditions: Staphylococcus aureus, ATCC29213; read-out: S. aureus (ATCC 29213) minimal inhibitory concentration (MIC). A digest of the protocol:
(§2)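 MICs by CLSI (M7-A7) broth microdilution or agar dilution, against reference ATCC strains as listed.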

A further assay concerns S. pyogenes (ATCC 51339). The assay is described as follows: Antibacterial susceptibility testing (MIC, broth microdilution or agar dilution), S. pyogenes. Conditions: Streptococcus pyogenes, ATCC51339; read-out: S. pyogenes (ATCC 51339) minimal inhibitory concentration (MIC). An outline of the steps: as §2
For the next assay, the system named is E. faecalis (ATCC 29212). The assay is described as follows: Antibacterial susceptibility testing (MIC, broth microdilution or agar dilution), E. faecalis. Conditions: Enterococcus faecalis, ATCC29212; read-out: E. faecalis (ATCC 29212) minimal inhibitory concentration (MIC). The method, then:
as §1

Values after ≈ are worked out from the molar mass of the structure shown.

Turning to `CCNC(=O)Nc1cc(Nc2ccccc2)c(C(=O)Nc2ccc(CC(C)(C)C(=O)O)cc2)cn1` [Compound 130, 3-(4-(6-(3-ethylureido)-4-(phenylamino)nicotinamido)phenyl)-2,2-dimethylpropanoic acid], the MIC in assay [1] is 4 µg/mL (≈ 8.41 µM); in the assay on S. aureus (ATCC 29213), not above 1 µg/mL; with S. pyogenes (ATCC 51339), not above 1 µg/mL.
With `CCNC(=O)Nc1cc(Nc2ccccc2)c(C(=O)Nc2ccc(CCC(=O)O)cc2)cn1` [Compound 78, 3-[4-[[4-anilino-6-(ethylcarbamoylamino)pyridine-3-carbonyl]amino]phenyl]propanoic acid], the values for the MIC (in assay [1]; with S. aureus (ATCC 29213); with S. pyogenes (ATCC 51339)) were 2 µg/mL (≈ 4.47 µM), not above 1 µg/mL and not above 1 µg/mL, respectively.
In the case of `CCNC(=O)Nc1cc(Nc2ccc(C)c(F)c2)c(C(=O)Nc2ccc(CCC(=O)O)cc2)cn1` [Compound 222, 3-{4-[({6-[(ethylcarbamoyl)amino]-4-[(3-fluoro-4-methylphenyl)amino]pyridin-3-yl}carbonyl)amino]phenyl}propanoic acid], the MIC (in assay [1]; in the assay with E. faecalis (ATCC 29212); in the assay on S. aureus (ATCC 29213)) was not above 1 µg/mL throughout.
On to `CCNC(=O)Nc1cc(Nc2cc(F)cc(F)c2)c(C(=O)Nc2ccc(C3CC3C(=O)O)cc2)cn1` (centres unmarked) [Compound 238, 2-{4-[({4-[(3,5-difluorophenyl)amino]-6-[(ethylcarbamoyl)amino]pyridin-3-yl}carbonyl)amino]phenyl}cyclopropanecarboxylic acid], for which the MIC (in assay [1]; with E. faecalis (ATCC 29212); in the assay on S. aureus (ATCC 29213)) was not above 1 µg/mL in each case.
In the case of `CCNC(=O)Nc1cc(Nc2ccnc(OC)c2)c(C(=O)Nc2ccc(CC(C)(C)C(=O)O)cc2)cn1` [Compound 187, 3-{4-[({6-[(ethylcarbamoyl)amino]-4-[(2-methoxypyridin-4-yl)amino]pyridin-3-yl}carbonyl)amino]phenyl}-2,2-dimethylpropanoic acid], the MIC (in assay [1]; in the assay with E. faecalis (ATCC 29212); in the assay with S. aureus (ATCC 29213)) was not above 1 µg/mL throughout.
Consider `CCNC(=O)Nc1cc(Nc2ccccc2)c(C(=O)Nc2ccc(CC(=O)O)cc2)cn1` [Compound 71, 2-(4-(6-(3-ethylureido)-4-(phenylamino)nicotinamido)phenyl)acetic acid], for which the MIC in assay [1] was 2 µg/mL (≈ 4.61 µM); in the assay on S. aureus (ATCC 29213), 16 µg/mL (≈ 36.9 µM); in the assay on S. pyogenes (ATCC 51339), not above 1 µg/mL.
With `CCNC(=O)Nc1cc(Nc2cccc(C#N)c2)c(C(=O)Nc2ccc(CC(C)(C)C(=O)O)cc2)cn1` [Compound 199, 3-{4-[({4-[(3-cyanophenyl)amino]-6-[(ethylcarbamoyl)amino]pyridin-3-yl}carbonyl)amino]phenyl}-2,2-dimethylpropanoic acid], the MIC is 2 µg/mL (≈ 4 µM) in assay [1], not above 1 µg/mL in the assay on E. faecalis (ATCC 29212) and 2 µg/mL (≈ 4 µM) with S. aureus (ATCC 29213).
In the case of `CCNC(=O)Nc1cc(Nc2ccccc2)c(C(=O)Nc2ccc(C(=O)O)cc2)cn1` [Compound 68, 4-(6-(3-ethylureido)-4-(phenylamino)nicotinamido)benzoic acid], the MIC is 4 µg/mL (≈ 9.54 µM) in assay [1], 8 µg/mL (≈ 19.1 µM) in the assay with S. aureus (ATCC 29213) and not above 1 µg/mL in the assay with S. pyogenes (ATCC 51339).
In the case of `CCNC(=O)Nc1cc(Nc2ccccc2)c(C(=O)Nc2ccc(S(N)(=O)=O)cc2)cn1` [Compound 231, 6-[(ethylcarbamoyl)amino]-4-(phenylamino)-N-(4-sulfamoylphenyl)pyridine-3-carboxamide], the results for the MIC (in assay [1]; with E. faecalis (ATCC 29212); in the assay on S. aureus (ATCC 29213)) were 4 µg/mL (≈ 8.8 µM), not above 1 µg/mL and 4 µg/mL (≈ 8.8 µM), respectively.
For `CCNC(=O)Nc1cc(Nc2ccccc2)c(C(=O)Nc2cc(C(=O)O)n(C)c2)cn1` [Compound 103, 4-(6-(3-ethylureido)-4-(phenylamino)nicotinamido)-1-methyl-1H-pyrrole-2-carboxylic acid], the MIC was 4 µg/mL (≈ 9.47 µM) in assay [1], 4 µg/mL (≈ 9.47 µM) with S. aureus (ATCC 29213) and not above 1 µg/mL in the assay on S. pyogenes (ATCC 51339).
For the compound `CCNC(=O)Nc1cc(Nc2cccc(C(F)(F)F)c2)c(C(=O)Nc2ccc(CCC(=O)O)cc2)cn1` [Compound 240, 3-(4-{[(6-[(ethylcarbamoyl)amino]-4-{[3-(trifluoromethyl)phenyl]amino}pyridin-3-yl)carbonyl]amino}phenyl)propanoic acid], the MIC (in assay [1]; in the assay with E. faecalis (ATCC 29212); in the assay on S. aureus (ATCC 29213)) was not above 1 µg/mL in each case.
As for `CCNC(=O)Nc1cc(Nc2ccccc2)c(C(=O)Nc2ccc(CC(=O)OCC)cc2)cn1` [Compound 70, ethyl 2-(4-(6-(3-ethylureido)-4-(phenylamino)nicotinamido)phenyl)acetate], the MIC in assay [1] is 2 µg/mL (≈ 4.33 µM); with S. aureus (ATCC 29213) it was not above 1 µg/mL; with S. pyogenes (ATCC 51339), not above 1 µg/mL.
As for `CCNC(=O)Nc1cc(Nc2ccc(C#N)cc2)c(C(=O)Nc2ccc(CN3CCOCC3)cc2)cn1` [Compound 204, 4-[(4-cyanophenyl)amino]-6-[(ethylcarbamoyl)amino]-N-[4-(morpholin-4-ylmethyl)phenyl]pyridine-3-carboxamide], the MIC in assay [1] is 4 µg/mL (≈ 8.01 µM); with E. faecalis (ATCC 29212), not above 1 µg/mL; in the assay on S. aureus (ATCC 29213), not above 1 µg/mL.
On to `CCNC(=O)Nc1cc(Nc2ccccc2)c(C(=O)Nc2ccc(-n3cccc3C(=O)O)cc2)cn1` [Compound 198, 1-{4-[({6-[(ethylcarbamoyl)amino]-4-(phenylamino)pyridin-3-yl}carbonyl)amino]phenyl}-1H-pyrrole-2-carboxylic acid], for which the MIC in assay [1] was 4 µg/mL (≈ 8.26 µM); with E. faecalis (ATCC 29212) it was not above 1 µg/mL; in the assay on S. aureus (ATCC 29213), 8 µg/mL (≈ 16.5 µM).
For `CCNC(=O)Nc1cc(Nc2cccc(S(F)(F)(F)(F)F)c2)c(C(=O)Nc2ccc(CCC(=O)O)cc2)cn1` [Compound 237, 3-(4-{[(6-[(ethylcarbamoyl)amino]-4-{[3-(pentafluorothio)phenyl]amino}pyridin-3-yl)carbonyl]amino}phenyl)propanoic acid], the MIC in assay [1] was 2 µg/mL (≈ 3.49 µM); in the assay on E. faecalis (ATCC 29212), not above 1 µg/mL; with S. aureus (ATCC 29213) it was not above 1 µg/mL.
For the compound `CCNC(=O)Nc1cc(Nc2ccccc2)c(C(=O)Nc2ccc(CS(=O)(=O)NC)cc2)cn1` [Compound 210, 6-[(ethylcarbamoyl)amino]-N-{4-[(methylsulfamoyl)methyl]phenyl}-4-(phenylamino)pyridine-3-carboxamide], the MIC in assay [1] was 4 µg/mL (≈ 8.29 µM); with E. faecalis (ATCC 29212), not above 1 µg/mL; in the assay with S. aureus (ATCC 29213), 2 µg/mL (≈ 4.14 µM).
Consider `CCNC(=O)Nc1cc(Nc2ccccc2)c(C(=O)Nc2ccc(C(=O)OC)cc2)cn1` [Compound 67, methyl 4-(6-(3-ethylureido)-4-(phenylamino)nicotinamido)benzoate], for which the MIC in assay [1] was 4 µg/mL (≈ 9.23 µM); in the assay with S. aureus (ATCC 29213), not above 1 µg/mL; in the assay on S. pyogenes (ATCC 51339), not above 1 µg/mL.
For `CCNC(=O)Nc1cc(Nc2ccccc2)c(C(=O)Nc2ccc(CCC(=O)OC)cc2)cn1` [Compound 77], the MIC was 2 µg/mL (≈ 4.33 µM) in assay [1], not above 1 µg/mL in the assay with S. aureus (ATCC 29213) and not above 1 µg/mL with S. pyogenes (ATCC 51339).
As to `CCNC(=O)Nc1cc(Nc2ccccc2)c(C(=O)Nc2ccc(NS(C)(=O)=O)cc2)cn1` [Compound 232, 6-[(ethylcarbamoyl)amino]-N-{4-[(methylsulfonyl)amino]phenyl}-4-(phenylamino)pyridine-3-carboxamide], the MIC in assay [1] was 4 µg/mL (≈ 8.54 µM); with E. faecalis (ATCC 29212), not above 1 µg/mL; in the assay on S. aureus (ATCC 29213), 2 µg/mL (≈ 4.27 µM).
For the compound `CCNC(=O)Nc1cc(Nc2ccccc2)c(C(=O)Nc2ccc(CCC(=O)N(C)OC)cc2)cn1` [Compound 123, 6-(3-Ethylureido)-N-(4-(3-(methoxy(methyl)amino)-3-oxopropyl)phenyl)-4-(phenylamino)nicotinamide], the MIC in assay [1] is 8 µg/mL (≈ 16.3 µM); in the assay with S. aureus (ATCC 29213), not above 1 µg/mL; in the assay on S. pyogenes (ATCC 51339), not above 1 µg/mL.
Regarding `CCNC(=O)Nc1cc(Nc2ccccc2)c(C(=O)Nc2ccnc(C)c2)cn1` [Compound 90, 6-(3-ethylureido)-N-(2-methylpyridin-4-yl)-4-(phenylamino)nicotinamide], the MIC is 8 µg/mL (≈ 20.5 µM) in assay [1], not above 1 µg/mL with S. aureus (ATCC 29213) and not above 1 µg/mL with S. pyogenes (ATCC 51339).
For the compound `CCNC(=O)Nc1cc(Nc2cc(F)cc(F)c2)c(C(=O)Nc2ccc(CCc3nnn[nH]3)cc2)cn1` [Compound 161, 4-(3,5-difluoroanilino)-6-(ethylcarbamoylamino)-N-[4-[2-(1H-tetrazol-5-yl)ethyl]phenyl]pyridine-3-carboxamide], the values for the MIC (in assay [1]; in the assay with S. aureus (ATCC 29213)) were 8 µg/mL (≈ 15.8 µM) and not above 1 µg/mL, respectively.
Take `CCNC(=O)Nc1cc(Nc2ccccc2)c(C(=O)Nc2ccn(C)c(=O)c2)cn1` [Compound 134, 6-[(Ethylcarbamoyl)amino]-N-(1-methyl-2-oxo-1,2-dihydropyridin-4-yl)-4-(phenylamino)pyridine-3-carboxamide]: the values for the MIC (in assay [1]; in the assay with S. aureus (ATCC 29213)) were 8 µg/mL (≈ 19.7 µM) and 4 µg/mL (≈ 9.84 µM), respectively.
For `CCNC(=O)Nc1cc(Nc2ccc(Cl)cc2)c(C(=O)Nc2ccc(CC(C)(C)C(=O)O)cc2)cn1` [Compound 160, 3-{4-[({4-[(4-chlorophenyl)amino]-6-[(ethylcarbamoyl)amino]pyridin-3-yl}carbonyl)amino]phenyl}-2,2-dimethylpropanoic acid], in that order: 8 µg/mL (≈ 15.7 µM) and not above 1 µg/mL.
As for `CCNC(=O)Nc1cc(Nc2cccc(OC)c2)c(C(=O)Nc2ccc(CC(C)(C)C(=O)O)cc2)cn1` [Compound 178, 3-{4-[({6-[(ethylcarbamoyl)amino]-4-[(3-methoxyphenyl)amino]pyridin-3-yl}carbonyl)amino]phenyl}-2,2-dimethylpropanoic acid], the MIC in assay [1] was 4 µg/mL (≈ 7.91 µM); in the assay on S. aureus (ATCC 29213), not above 1 µg/mL.

Values taken from patent publication US9060515B2, “Heterocyclic urea compounds” (BIOTA EUROPE LTD, priority 2011, dated 2015).
